Measurements reported in ChEMBL document CHEMBL1177794, “Broad spectrum alkynyl inhibitors of T315I Bcr-Abl” (Bioorg Med Chem Lett, 2010).

Experiments:
[1] = molecular target: STE20/SPS1-related proline-alanine-rich protein kinase (Homo sapiens) (UniProt Q9UEW8); experiment: Inhibition of STK39 at 10 uM
[2] = molecular target: Microtubule-associated serine/threonine-protein kinase 1 (Homo sapiens) (UniProt Q9Y2H9); experiment: Inhibition of MAST1 at 10 uM; details: values are per cent of control
[3] = molecular target: Tyrosine-protein kinase Fgr (Homo sapiens) (UniProt P09769); experiment: Inhibition of FGR at 10 uM; details: values are per cent of control
[4] = molecular target: Rho-associated protein kinase 2 (Homo sapiens) (UniProt O75116); experiment: Inhibition of ROCK2 at 10 uM
Sequence of Rho-associated protein kinase 2 (Homo sapiens) (O75116 whole entry, looked up): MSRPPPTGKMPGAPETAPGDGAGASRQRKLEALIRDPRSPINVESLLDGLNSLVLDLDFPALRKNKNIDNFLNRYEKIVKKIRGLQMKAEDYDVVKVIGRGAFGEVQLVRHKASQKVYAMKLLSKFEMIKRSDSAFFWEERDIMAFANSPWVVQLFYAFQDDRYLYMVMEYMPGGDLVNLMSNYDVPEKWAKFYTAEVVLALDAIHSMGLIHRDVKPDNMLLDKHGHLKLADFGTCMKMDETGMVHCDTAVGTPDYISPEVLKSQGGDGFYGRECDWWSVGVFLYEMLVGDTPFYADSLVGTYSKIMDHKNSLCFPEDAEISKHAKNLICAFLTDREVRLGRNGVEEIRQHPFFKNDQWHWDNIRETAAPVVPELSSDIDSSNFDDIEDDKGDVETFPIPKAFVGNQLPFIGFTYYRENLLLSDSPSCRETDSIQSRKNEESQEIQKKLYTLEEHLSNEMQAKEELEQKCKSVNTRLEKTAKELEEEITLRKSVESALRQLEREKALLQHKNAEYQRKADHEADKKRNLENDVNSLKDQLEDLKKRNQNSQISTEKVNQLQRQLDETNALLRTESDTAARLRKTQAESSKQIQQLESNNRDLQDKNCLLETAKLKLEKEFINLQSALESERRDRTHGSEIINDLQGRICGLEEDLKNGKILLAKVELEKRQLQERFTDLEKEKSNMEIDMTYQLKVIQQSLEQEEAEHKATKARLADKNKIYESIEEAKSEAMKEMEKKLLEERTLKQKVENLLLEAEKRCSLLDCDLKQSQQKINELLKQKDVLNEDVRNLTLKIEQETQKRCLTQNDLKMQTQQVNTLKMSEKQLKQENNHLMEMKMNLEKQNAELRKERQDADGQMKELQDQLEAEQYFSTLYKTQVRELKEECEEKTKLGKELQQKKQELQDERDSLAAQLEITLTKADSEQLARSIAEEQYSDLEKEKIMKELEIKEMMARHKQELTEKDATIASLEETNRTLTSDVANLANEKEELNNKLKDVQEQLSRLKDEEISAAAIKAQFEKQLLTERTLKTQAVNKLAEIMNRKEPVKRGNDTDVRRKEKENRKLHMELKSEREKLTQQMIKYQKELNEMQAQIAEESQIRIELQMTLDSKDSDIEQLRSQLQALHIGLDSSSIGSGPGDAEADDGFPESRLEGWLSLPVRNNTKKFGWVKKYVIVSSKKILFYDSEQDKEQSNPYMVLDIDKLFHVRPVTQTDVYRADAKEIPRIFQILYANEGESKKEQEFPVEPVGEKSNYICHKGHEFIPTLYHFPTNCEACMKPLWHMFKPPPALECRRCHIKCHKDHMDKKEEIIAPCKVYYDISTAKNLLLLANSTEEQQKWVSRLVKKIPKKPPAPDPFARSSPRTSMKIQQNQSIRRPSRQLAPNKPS

[5] = molecular target: Cyclin-dependent kinase 2 homolog (Plasmodium falciparum (isolate K1 / Thailand)) (UniProt Q07785); experiment: Inhibition of Plasmodium falciparum PFPK5 at 10 uM
[6] = molecular target: Tyrosine-protein kinase Fyn (Homo sapiens) (UniProt P06241); experiment: Inhibition of FYN at 10 uM; values are per cent of control
[7] = molecular target: Serine/threonine-protein kinase 3 (Homo sapiens) (UniProt Q13188); experiment: Inhibition of MST2 at 10 uM
[8] = tested on: Fibroblast growth factor receptor 3 (Homo sapiens), P22607 [G697C]; experiment: Inhibition of FGFR3 G697C mutant at 10 uM; details: values are per cent of control
Sequence of Fibroblast growth factor receptor 3 (Homo sapiens), P22607 [G697C] (P22607 whole entry G697C): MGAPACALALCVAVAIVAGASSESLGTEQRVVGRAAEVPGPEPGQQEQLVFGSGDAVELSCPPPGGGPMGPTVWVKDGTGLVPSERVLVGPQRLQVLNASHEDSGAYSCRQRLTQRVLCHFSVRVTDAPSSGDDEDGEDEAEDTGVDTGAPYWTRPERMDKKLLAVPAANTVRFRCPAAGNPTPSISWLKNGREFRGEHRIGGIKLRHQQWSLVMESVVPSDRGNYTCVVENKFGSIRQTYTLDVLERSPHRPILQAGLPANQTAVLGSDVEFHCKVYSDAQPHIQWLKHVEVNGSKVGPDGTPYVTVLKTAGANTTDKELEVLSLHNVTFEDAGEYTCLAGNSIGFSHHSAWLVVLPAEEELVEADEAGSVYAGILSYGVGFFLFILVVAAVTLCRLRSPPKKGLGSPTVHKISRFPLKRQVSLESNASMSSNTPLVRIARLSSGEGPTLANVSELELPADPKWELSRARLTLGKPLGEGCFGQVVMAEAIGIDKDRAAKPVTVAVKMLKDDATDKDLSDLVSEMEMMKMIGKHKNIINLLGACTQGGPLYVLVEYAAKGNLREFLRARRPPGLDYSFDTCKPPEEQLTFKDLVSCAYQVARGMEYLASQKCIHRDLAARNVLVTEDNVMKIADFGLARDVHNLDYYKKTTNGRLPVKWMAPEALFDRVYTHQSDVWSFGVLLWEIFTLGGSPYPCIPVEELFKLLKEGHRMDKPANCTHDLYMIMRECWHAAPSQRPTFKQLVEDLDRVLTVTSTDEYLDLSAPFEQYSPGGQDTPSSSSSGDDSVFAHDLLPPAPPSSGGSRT

[9] = molecular target: Proto-oncogene tyrosine-protein kinase Src (Homo sapiens) (UniProt P12931); experiment: Inhibition of SRC at 10 uM; values are per cent of control
[10] = molecular target: Mitogen-activated protein kinase 15 (Homo sapiens) (UniProt Q8TD08); experiment: Inhibition of ERK8 at 10 uM; details: values are per cent of control
[11] = molecular target: Insulin receptor-related protein (Homo sapiens) (UniProt P14616); experiment: Inhibition of INSRR at 10 uM; details: values are per cent of control
[12] = molecular target: Aurora kinase B (Homo sapiens) (UniProt Q96GD4); experiment: Inhibition of AURKB at 10 uM; details: values are per cent of control
[13] = molecular target: Cyclin-dependent kinase 9 (Homo sapiens) (UniProt P50750); experiment: Inhibition of CDK9 at 10 uM; values are per cent of control
[14] = molecular target: Serine/threonine-protein kinase ULK1 (Homo sapiens) (UniProt O75385); experiment: Inhibition of ULK1 at 10 uM; details: values are per cent of control
Sequence of Serine/threonine-protein kinase ULK1 (Homo sapiens) (O75385 whole entry): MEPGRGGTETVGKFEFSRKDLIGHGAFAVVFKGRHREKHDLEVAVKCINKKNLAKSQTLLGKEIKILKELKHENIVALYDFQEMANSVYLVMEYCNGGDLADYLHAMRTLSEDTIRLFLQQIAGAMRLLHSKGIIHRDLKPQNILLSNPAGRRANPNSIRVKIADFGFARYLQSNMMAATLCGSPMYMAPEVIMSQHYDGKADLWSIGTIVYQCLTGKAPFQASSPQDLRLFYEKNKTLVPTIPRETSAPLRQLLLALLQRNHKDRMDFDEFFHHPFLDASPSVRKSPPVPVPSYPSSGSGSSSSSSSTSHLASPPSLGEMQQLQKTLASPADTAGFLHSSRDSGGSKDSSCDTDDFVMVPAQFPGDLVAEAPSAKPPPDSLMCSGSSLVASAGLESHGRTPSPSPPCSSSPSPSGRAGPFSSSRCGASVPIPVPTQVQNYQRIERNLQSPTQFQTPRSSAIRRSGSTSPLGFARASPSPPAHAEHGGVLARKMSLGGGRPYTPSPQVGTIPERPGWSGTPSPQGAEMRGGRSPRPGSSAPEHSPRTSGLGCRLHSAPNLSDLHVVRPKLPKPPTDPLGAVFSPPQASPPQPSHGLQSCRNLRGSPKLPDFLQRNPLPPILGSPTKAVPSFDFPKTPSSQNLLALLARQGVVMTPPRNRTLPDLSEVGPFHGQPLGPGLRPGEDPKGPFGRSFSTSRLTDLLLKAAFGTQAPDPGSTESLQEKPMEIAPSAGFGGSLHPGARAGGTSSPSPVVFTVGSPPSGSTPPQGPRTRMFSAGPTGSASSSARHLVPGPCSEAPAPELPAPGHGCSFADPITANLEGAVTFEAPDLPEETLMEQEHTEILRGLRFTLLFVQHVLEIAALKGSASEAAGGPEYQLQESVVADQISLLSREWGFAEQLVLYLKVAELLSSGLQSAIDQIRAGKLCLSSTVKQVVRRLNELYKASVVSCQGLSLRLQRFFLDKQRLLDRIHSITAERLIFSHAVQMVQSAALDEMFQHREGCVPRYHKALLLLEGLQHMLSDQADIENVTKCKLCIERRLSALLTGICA

[15] = molecular target: Wee1-like protein kinase 2 (Homo sapiens) (UniProt P0C1S8); experiment: Inhibition of WEE2 at 10 uM; details: values are per cent of control
[16] = molecular target: Cyclin-dependent kinase 2 (Homo sapiens) (UniProt P24941); experiment: Inhibition of CDK2 at 10 uM; values are per cent of control
[17] = molecular target: Serine/threonine-protein kinase DCLK3 (Homo sapiens) (UniProt Q9C098); experiment: Inhibition of DCAMKL3 at 10 uM; details: values are per cent of control
[18] = molecular target: Non-receptor tyrosine-protein kinase TYK2 (Homo sapiens) (UniProt P29597); experiment: Inhibition of TYK2 JH2 pseudokinase domain at 10 uM; details: values are per cent of control
[19] = molecular target: Tyrosine-protein kinase Lck (Homo sapiens) (UniProt P06239); experiment: Inhibition of LCK at 10 uM; values are per cent of control
Sequence of Tyrosine-protein kinase Lck (Homo sapiens) (P06239 2-509 limits assumed): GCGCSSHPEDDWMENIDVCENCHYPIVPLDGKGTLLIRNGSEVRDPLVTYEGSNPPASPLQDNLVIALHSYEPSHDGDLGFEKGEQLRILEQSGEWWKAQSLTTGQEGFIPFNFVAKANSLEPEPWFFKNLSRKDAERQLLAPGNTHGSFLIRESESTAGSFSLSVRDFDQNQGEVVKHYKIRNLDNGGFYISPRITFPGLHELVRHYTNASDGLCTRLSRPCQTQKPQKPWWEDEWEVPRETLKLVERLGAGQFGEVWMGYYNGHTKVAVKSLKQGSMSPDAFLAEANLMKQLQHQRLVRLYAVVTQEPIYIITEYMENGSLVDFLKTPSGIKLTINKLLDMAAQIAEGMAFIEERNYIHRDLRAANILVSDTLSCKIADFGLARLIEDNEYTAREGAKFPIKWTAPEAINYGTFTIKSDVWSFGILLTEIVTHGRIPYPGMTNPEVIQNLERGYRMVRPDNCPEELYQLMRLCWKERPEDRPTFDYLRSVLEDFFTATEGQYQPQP

[20] = molecular target: Cyclin-dependent kinase 17 (Homo sapiens) (UniProt Q00537); experiment: Inhibition of PCTK2 at 10 uM; details: values are per cent of control
Sequence of Cyclin-dependent kinase 17 (Homo sapiens) (Q00537 whole entry, looked up): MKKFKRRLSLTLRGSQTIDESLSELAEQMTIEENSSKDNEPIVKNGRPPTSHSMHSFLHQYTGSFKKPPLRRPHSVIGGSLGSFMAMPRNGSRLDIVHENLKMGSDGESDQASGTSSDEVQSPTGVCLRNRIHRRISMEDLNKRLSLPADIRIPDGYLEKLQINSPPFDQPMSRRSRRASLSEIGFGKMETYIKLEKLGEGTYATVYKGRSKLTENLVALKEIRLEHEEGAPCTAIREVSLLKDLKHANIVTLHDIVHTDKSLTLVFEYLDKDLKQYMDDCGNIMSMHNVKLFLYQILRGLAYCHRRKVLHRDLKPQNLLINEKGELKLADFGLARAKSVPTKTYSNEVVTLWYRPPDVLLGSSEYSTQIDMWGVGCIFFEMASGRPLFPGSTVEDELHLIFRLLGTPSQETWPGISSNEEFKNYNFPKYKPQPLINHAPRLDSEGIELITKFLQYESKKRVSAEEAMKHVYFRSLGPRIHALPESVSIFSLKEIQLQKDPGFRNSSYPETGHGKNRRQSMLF

[21] = molecular target: Dual specificity tyrosine-phosphorylation-regulated kinase 2 (Homo sapiens) (UniProt Q92630); experiment: Inhibition of DYRK2 at 10 uM; details: values are per cent of control
[22] = molecular target: Leucine-rich repeat serine/threonine-protein kinase 2 (Homo sapiens) (UniProt Q5S007); experiment: Inhibition of LRRK2 at 10 uM; details: values are per cent of control
[23] = molecular target: Ribosomal protein S6 kinase alpha-2 (Homo sapiens) (UniProt Q15349); experiment: Inhibition of RSK3 N-terminal domain1 at 10 uM
Sequence of Ribosomal protein S6 kinase alpha-2 (Homo sapiens) (Q15349 whole entry, the tested form may be a part): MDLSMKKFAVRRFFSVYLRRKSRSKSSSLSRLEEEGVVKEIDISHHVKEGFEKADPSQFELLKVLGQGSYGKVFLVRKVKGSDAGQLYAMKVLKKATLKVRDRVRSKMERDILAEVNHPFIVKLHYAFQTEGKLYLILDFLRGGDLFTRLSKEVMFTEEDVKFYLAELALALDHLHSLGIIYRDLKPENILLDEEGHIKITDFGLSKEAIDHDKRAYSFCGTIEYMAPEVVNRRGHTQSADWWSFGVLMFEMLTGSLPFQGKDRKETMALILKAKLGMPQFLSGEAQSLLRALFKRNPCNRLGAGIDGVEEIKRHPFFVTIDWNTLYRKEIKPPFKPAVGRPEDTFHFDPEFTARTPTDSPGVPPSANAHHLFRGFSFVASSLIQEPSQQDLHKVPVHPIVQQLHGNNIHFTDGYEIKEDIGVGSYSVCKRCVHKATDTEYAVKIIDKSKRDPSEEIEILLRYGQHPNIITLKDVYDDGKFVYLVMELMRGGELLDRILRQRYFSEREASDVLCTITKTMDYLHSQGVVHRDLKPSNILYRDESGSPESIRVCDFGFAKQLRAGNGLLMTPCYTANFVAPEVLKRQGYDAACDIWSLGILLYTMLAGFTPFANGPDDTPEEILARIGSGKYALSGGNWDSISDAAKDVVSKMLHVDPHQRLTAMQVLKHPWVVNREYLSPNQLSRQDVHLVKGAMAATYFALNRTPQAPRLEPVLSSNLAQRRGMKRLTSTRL

[24] = molecular target: Mitogen-activated protein kinase kinase kinase 11 (Homo sapiens) (UniProt Q16584); experiment: Inhibition of MLK3 at 10 uM
[25] = molecular target: Testis-specific serine/threonine-protein kinase 1 (Homo sapiens) (UniProt Q9BXA7); experiment: Inhibition of TSSK1B at 10 uM; details: values are per cent of control
[26] = tested on: eIF-2-alpha kinase GCN2 (Homo sapiens), Q9P2K8 [S808G]; experiment: Inhibition of GCN2 Domain2 S808G mutant at 10 uM; details: values are per cent of control
[27] = molecular target: BMP-2-inducible protein kinase (Homo sapiens) (UniProt Q9NSY1); experiment: Inhibition of BIKE at 10 uM; details: values are per cent of control
[28] = molecular target: Misshapen-like kinase 1 (Homo sapiens) (UniProt Q8N4C8); experiment: Inhibition of MINK at 10 uM
[29] = molecular target: Vascular endothelial growth factor receptor 1 (Homo sapiens) (UniProt P17948); experiment: Inhibition of FLT1 at 10 uM; values are per cent of control
[30] = molecular target: Activin receptor type-2A (Homo sapiens) (UniProt P27037); experiment: Inhibition of ACVR2A at 10 uM; details: values are per cent of control
[31] = molecular target: Tyrosine-protein kinase TXK (Homo sapiens) (UniProt P42681); experiment: Inhibition of TXK at 10 uM; details: values are per cent of control
[32] = molecular target: Dual specificity protein kinase CLK1 (Homo sapiens) (UniProt P49759); experiment: Inhibition of CLK1 at 10 uM; details: values are per cent of control
[33] = molecular target: Serine/threonine-protein kinase tousled-like 1 (Homo sapiens) (UniProt Q9UKI8); experiment: Inhibition of TLK1 at 10 uM
[34] = molecular target: Ribosomal protein S6 kinase alpha-2 (Homo sapiens) (UniProt Q15349); experiment: Inhibition of RSK3 C-terminal domain2 at 10 uM
[35] = molecular target: Ribosomal protein S6 kinase alpha-5 (Homo sapiens) (UniProt O75582); experiment: Inhibition of RPS6KA5 N-terminal domain1 at 10 uM
[36] = molecular target: Receptor-interacting serine/threonine-protein kinase 4 (Homo sapiens) (UniProt P57078); experiment: Inhibition of RIPK4 at 10 uM
[37] = molecular target: Tyrosine-protein kinase receptor UFO (Homo sapiens) (UniProt P30530); experiment: Inhibition of AXL at 10 uM; details: values are per cent of control
[38] = molecular target: Inhibitor of nuclear factor kappa-B kinase subunit epsilon (Homo sapiens) (UniProt Q14164); experiment: Inhibition of IKK-epsilon at 10 uM; details: values are per cent of control
[39] = molecular target: Activin receptor type-1B (Homo sapiens) (UniProt P36896); experiment: Inhibition of ACVR1B at 10 uM; details: values are per cent of control
[40] = molecular target: Rhodopsin kinase GRK1 (Homo sapiens) (UniProt Q15835); experiment: Inhibition of GRK1 at 10 uM; details: values are per cent of control
[41] = molecular target: Ankyrin repeat and protein kinase domain-containing protein 1 (Homo sapiens) (UniProt Q8NFD2); experiment: Inhibition of ANKK1 at 10 uM; details: values are per cent of control
[42] = molecular target: SRSF protein kinase 1 (Homo sapiens) (UniProt Q96SB4); experiment: Inhibition of SRPK1 at 10 uM
[43] = molecular target: Serine/threonine-protein kinase LATS2 (Homo sapiens) (UniProt Q9NRM7); experiment: Inhibition of LATS2 at 10 uM; values are per cent of control
[44] = molecular target: Tyrosine-protein kinase Mer (Homo sapiens) (UniProt Q12866); experiment: Inhibition of MERTK at 10 uM; details: values are per cent of control

CCN1CCN(Cc2ccc(NC(=O)c3ccc(C)c(C#Cc4cccnc4)c3)cc2C(F)(F)F)CC1
inhibition [1]: 89%
residual binding, % of control [2]: 100%
residual binding, % of control [3]: 0%
inhibition [4]: 19%
inhibition [5]: 89%
level, % of control [6]: 0.35%
inhibition [7]: 53%
residual binding, % of control [8]: 0.05%
% of control [9]: 0%
residual binding, % of control [10]: 1.8%
residual binding, % of control [11]: 79%
residual binding, % of control [12]: 24%
level, % of control [13]: 52%
residual binding, % of control [14]: 24%
residual binding, % of control [15]: 100%
level, % of control [16]: 10%
residual binding, % of control [17]: 100%
residual binding, % of control [18]: 99%
level, % of control [19]: 0.05%
residual binding, % of control [20]: 8.2%
residual binding, % of control [21]: 48%
residual binding, % of control [22]: 3.4%
inhibition [23]: 9.5%
inhibition [24]: 17%
residual binding, % of control [25]: 92%
residual binding, % of control [26]: 1.3%
residual binding, % of control [27]: 59%
inhibition [28]: 2.5%
level, % of control [29]: 0.5%
residual binding, % of control [30]: 100%
residual binding, % of control [31]: 0.3%
residual binding, % of control [32]: 3.9%
inhibition [33]: 93%
inhibition [34]: 30%
inhibition [35]: 59%
inhibition [36]: 48%
residual binding, % of control [37]: 2.9%
residual binding, % of control [38]: 100%
residual binding, % of control [39]: 85%
residual binding, % of control [40]: 100%
residual binding, % of control [41]: 8.2%
inhibition [42]: 100%
level, % of control [43]: 7.6%
residual binding, % of control [44]: 5.2%
